According to patent US20120190752A1, “EXO-S-MECAMYLAMINE METHOD, USE, AND COMPOUND FOR TREATMENT” (Targacept Inc., priority 2009, published 2012):

Test system: subjects with major depressive disorder (MDD) who were inadequate responders to citalopram
Assay: QIDS-SR, Phase 2b add-on trial
Type: in vivo, human
From the text: The 30 item Inventory of Depressive Symptomatology (IDS) (Rush et al. 1986, 1996) and the 16 item Quick Inventory of Depressive Symptomatology (QIDS) (Rush et al. 2003) are designed to assess the severity of depressive symptoms. Both the IDS and the […] are available in the clinician (IDS-C30 and QIDS-C16) and self-rated versions (IDS-SR30 and QIDS-SR16). The IDS and QIDS assess all the criterion symptom domains designated by the American Psychiatry Association Diagnostic and Statistical Manual of Mental Disorders—4th edition (DSM-IV) (APA 1994) to diagnose a major depressive episode. These assessments can be used to screen for depression, although they have been used predominantly as measures of symptom severity. The seven day period prior to assessment is the usual time frame for assessing symptom severity. The […] and QIDS-SR16 cover only the nine diagnostic symptom domains used to characterize a major depressive episode, without items to assess atypical, melancholic or their commonly associated symptoms. All 16 items on the QIDS are included within the IDS. The IDS-C30 and […] include the criterion symptoms, as well as commonly associated symptoms (e.g. anxiety, irritability) and items relevant to melancholic, or atypical symptom features. Both versions are sensitive to change, with medications, psychotherapy, or somatic treatments, making them useful for both research and clinical purposes. The psychometric properties of both the IDS and QIDS, have both been established in various study samples. See Rush A J, Trivedi M H, Ibrahim H M, et al., The 16-item Quick Inventory of Depressive Symptomatology (QIDS), Clinician Rating (QIDS-C), and Self-Report (QIDS-SR): a psychometric evaluation in patients with chronic major depression. Biol Psychiatry.; 54: 573-583 (2003).
In more detail, a multi-center double-blind, randomized, placebo-controlled, parallel group, flexible dose titration study of TC-5214 as adjunctive therapy in subjects with major depressive disorder (MDD) who were inadequate responders to citalopram was conducted in centers in the US and India. The study consisted of a screening period, baseline/washout period, open-label phase, double-blind phase, and a follow-up visit. Subject participation in the study could continue for up to 16 weeks of treatment. Following a washout period of up to 28 days for other antidepressants, subjects with MDD and a MADRS total score >/=28 and a Clinical Global Impression-Severity (CGI-S) score >/=4 were enrolled on Day 1 into an open-label citalopram-only phase of the study. This phase lasted 8 weeks, with citalopram (CIT) dose increased from a once-daily dose of 20 mg (Day 1 through Week 4) to 40 mg (Week 4 through Week 8). A total of 579 subjects entered the open-label citalopram phase. At Week 8, subjects who tolerated 40 mg CIT, but whose MADRS score was reduced <50% from baseline and no lower than 17, and CGI-S≧4, were considered inadequate responders. These subjects (n=270) were randomized in a double-blind fashion to receive either placebo or TC-5214-23 as add-on therapy to continued CIT. The double-blind phase of the study also lasted 8 weeks (Week 8 to Week 16). Study drug, TC-5214-23 or placebo, was started at 2 mg daily (1 mg twice per day [BID] dosing), added on to continuing CIT (40 mg PO qd). After 2 weeks of treatment, the dose of TC-5214 could be increased to 4 mg (2 mg BID) or continued unchanged, with up-titration based upon good tolerability and inadequate therapeutic response. After a further 2 weeks, the dose of TC-5214 could be increased again to 8 mg (4 mg BID) if judged appropriate by the investigator, based upon good tolerability and inadequate therapeutic response. At any time during the double-blind phase of the study, placebo or TC-5214-23 could be reduced to the previous dose level following the emergence of unacceptable adverse events (AEs). […] At this follow-up, any signs or symptoms of relapse were evaluated. […]

[1] = ITT N=265, week of double-blind treatment
[2] = ITT and PP, at every assessment week, result in words
[3] = ITT, Double Blind Week 18 (Follow-up)
[4] = ITT, Double Blind Week 18 LOCF (Follow-up), change from Week 16
[5] = PP, Double Blind Week 16 LOCF (change from Week 8)
[6] = PP, Double Blind Week 18 (Follow-up)
[7] = PP, Double Blind Week 18 LOCF (Follow-up), change from Week 16

For CNC1(C)C2CCC(C2)C1(C)C (stereo in doubt) [TC-5214, (S)—N,2,3,3-tetramethylnorbornan-2-amine], the “onset of separation from placebo, subject rated remission QIDS-SR≦5 (FIG. 2)” value [1] was no more than 2 week, the “onset of separation from placebo, subject rated response QIDS-SR≧50% (FIG. 3)” value [1] was no more than 1 week and the “QIDS-SR score change from baseline compared with placebo” value (ITT and PP populations, result in words) was “statistically significant decreases (improvements)”. For the same compound, the “QIDS remission proportion compared with placebo” value [2] was “higher proportion of subjects with remission”, the “QIDS responders (reduction from baseline ≧50%) proportion compared with placebo” value [2] was “higher proportion of responders” and the “QIDS reduction from baseline ≧50%: Subjects with Response (number)” value (ITT, Double Blind Week 10) was 29. For the same compound, the “QIDS reduction from baseline ≧50%: Subjects with Response (percentage)” value (ITT, Double Blind Week 10) was 22%, the “QIDS reduction from baseline ≧50%: Subjects without Response (number)” value (ITT, Double Blind Week 10) was 104 and the “QIDS reduction from baseline ≧50%: Subjects without Response (percentage)” value (ITT, Double Blind Week 10) was 78%. The “QIDS score ≦5: Subjects with Remission (number)” value (ITT, Double Blind Week 10) was 19, the “QIDS score ≦5: Subjects with Remission (percentage)” value (ITT, Double Blind Week 10) was “(14%)” and the “QIDS score ≦5: Subjects without Remission (number)” value (ITT, Double Blind Week 10) was 114. For the same compound, the “QIDS score ≦5: Subjects without Remission (percentage)” value (ITT, Double Blind Week 10) was “(86%)”, the “QIDS reduction from baseline ≧50%: Subjects with Response (number)” value (ITT, Double Blind Week 12) was 44 and the “QIDS reduction from baseline ≧50%: Subjects with Response (percentage)” value (ITT, Double Blind Week 12) was 33%. The “QIDS reduction from baseline ≧50%: Subjects without Response (number)” value (ITT, Double Blind Week 12) was 89, the “QIDS reduction from baseline ≧50%: Subjects without Response (percentage)” value (ITT, Double Blind Week 12) was 67% and the “QIDS score ≦5: Subjects with Remission (number)” value (ITT, Double Blind Week 12) was 25. The “QIDS score ≦5: Subjects with Remission (percentage)” value (ITT, Double Blind Week 12) was “(19%)”, the “QIDS score ≦5: Subjects without Remission (number)” value (ITT, Double Blind Week 12) was 108 and the “QIDS score ≦5: Subjects without Remission (percentage)” value (ITT, Double Blind Week 12) was “(81%)”. For the same compound, the “QIDS reduction from baseline ≧50%: Subjects with Response (number)” value (ITT, Double Blind Week 14) was 67, the “QIDS reduction from baseline ≧50%: Subjects with Response (percentage)” value (ITT, Double Blind Week 14) was 50% and the “QIDS reduction from baseline ≧50%: Subjects without Response (number)” value (ITT, Double Blind Week 14) was 66. For the same compound, the “QIDS reduction from baseline ≧50%: Subjects without Response (percentage)” value (ITT, Double Blind Week 14) was 50%, the “QIDS score ≦5: Subjects with Remission (number)” value (ITT, Double Blind Week 14) was 45 and the “QIDS score ≦5: Subjects with Remission (percentage)” value (ITT, Double Blind Week 14) was “(34%)”. For the same compound, the “QIDS score ≦5: Subjects without Remission (number)” value (ITT, Double Blind Week 14) was 88, the “QIDS score ≦5: Subjects without Remission (percentage)” value (ITT, Double Blind Week 14) was “(66%)” and the “QIDS reduction from baseline ≧50%: Subjects with Response (number)” value (ITT, Double Blind Week 16) was 88. The “QIDS reduction from baseline ≧50%: Subjects with Response (percentage)” value (ITT, Double Blind Week 16) was 66%, the “QIDS reduction from baseline ≧50%: Subjects without Response (number)” value (ITT, Double Blind Week 16) was 45 and the “QIDS reduction from baseline ≧50%: Subjects without Response (percentage)” value (ITT, Double Blind Week 16) was 34%. For the same compound, the “QIDS score ≦5: Subjects with Remission (number)” value (ITT, Double Blind Week 16) was 60, the “QIDS score ≦5: Subjects with Remission (percentage)” value (ITT, Double Blind Week 16) was “(45%)” and the “QIDS score ≦5: Subjects without Remission (number)” value (ITT, Double Blind Week 16) was 73. For the same compound, the “QIDS score ≦5: Subjects without Remission (percentage)” value (ITT, Double Blind Week 16) was “(55%)”, the “QIDS-SR Mean Difference between TC-5214 and Placebo” value (ITT, Double Blind Week 16 LOCF (change from Week 8)) was 3.79 and the “QIDS reduction from baseline ≧50%: Subjects with Response (number)” value [3] was 92. For the same compound, the “QIDS reduction from baseline ≧50%: Subjects with Response (percentage)” value [3] was 69%, the “QIDS reduction from baseline ≧50%: Subjects without Response (number)” value [3] was 41 and the “QIDS reduction from baseline ≧50%: Subjects without Response (percentage)” value [3] was 31%. The “QIDS score ≦5: Subjects with Remission (number)” value [3] was 75, the “QIDS score ≦5: Subjects with Remission (percentage)” value [3] was “(56%)” and the “QIDS score ≦5: Subjects without Remission (number)” value [3] was 58. For the same compound, the “QIDS score ≦5: Subjects without Remission (percentage)” value [3] was “(44%)”, the “QIDS-SR Adjusted Mean change” value [4] was −0.52 and the “QIDS-SR Mean Difference between TC-5214 and Placebo” value [4] was 0.58. For the same compound, the “QIDS-SR Difference vs Placebo + CIT” value (ITT, Week 8 to Week 16 LOCF) was −3.76, the “QIDS-SR Adj. Mean change” value (ITT, change from Week 8 (double-blind baseline) to Week 16 LOCF, add-on to citalopram) was −8.07 and the “QIDS-SR score change at Week 18 compared with placebo” value (PP population, Week 18, result in words) was “statistically significant decrease”. The “QIDS reduction from baseline ≧50%: Subjects with Response (number)” value (PP, Double Blind Week 10) was 25, the “QIDS reduction from baseline ≧50%: Subjects with Response (percentage)” value (PP, Double Blind Week 10) was 22% and the “QIDS reduction from baseline ≧50%: Subjects without Response (number)” value (PP, Double Blind Week 10) was 88. For the same compound, the “QIDS reduction from baseline ≧50%: Subjects without Response (percentage)” value (PP, Double Blind Week 10) was 78%, the “QIDS score ≦5: Subjects with Remission (number)” value (PP, Double Blind Week 10) was 17 and the “QIDS score ≦5: Subjects with Remission (percentage)” value (PP, Double Blind Week 10) was 15%. The “QIDS score ≦5: Subjects without Remission (number)” value (PP, Double Blind Week 10) was 96, the “QIDS score ≦5: Subjects without Remission (percentage)” value (PP, Double Blind Week 10) was 85% and the “QIDS reduction from baseline ≧50%: Subjects with Response (number)” value (PP, Double Blind Week 12) was 40. The “QIDS reduction from baseline ≧50%: Subjects with Response (percentage)” value (PP, Double Blind Week 12) was 35%, the “QIDS reduction from baseline ≧50%: Subjects without Response (number)” value (PP, Double Blind Week 12) was 73 and the “QIDS reduction from baseline ≧50%: Subjects without Response (percentage)” value (PP, Double Blind Week 12) was 65%. For the same compound, the “QIDS score ≦5: Subjects with Remission (number)” value (PP, Double Blind Week 12) was 23, the “QIDS score ≦5: Subjects with Remission (percentage)” value (PP, Double Blind Week 12) was 20% and the “QIDS score ≦5: Subjects without Remission (number)” value (PP, Double Blind Week 12) was 90. For the same compound, the “QIDS score ≦5: Subjects without Remission (percentage)” value (PP, Double Blind Week 12) was 80%, the “QIDS reduction from baseline ≧50%: Subjects with Response (number)” value (PP, Double Blind Week 14) was 59 and the “QIDS reduction from baseline ≧50%: Subjects with Response (percentage)” value (PP, Double Blind Week 14) was 52%. The “QIDS reduction from baseline ≧50%: Subjects without Response (number)” value (PP, Double Blind Week 14) was 54, the “QIDS reduction from baseline ≧50%: Subjects without Response (percentage)” value (PP, Double Blind Week 14) was 48% and the “QIDS score ≦5: Subjects with Remission (number)” value (PP, Double Blind Week 14) was 39. The “QIDS score ≦5: Subjects with Remission (percentage)” value (PP, Double Blind Week 14) was 35%, the “QIDS score ≦5: Subjects without Remission (number)” value (PP, Double Blind Week 14) was 74 and the “QIDS score ≦5: Subjects without Remission (percentage)” value (PP, Double Blind Week 14) was 65%. The “QIDS reduction from baseline ≧50%: Subjects with Response (number)” value (PP, Double Blind Week 16) was 80, the “QIDS reduction from baseline ≧50%: Subjects with Response (percentage)” value (PP, Double Blind Week 16) was 71% and the “QIDS reduction from baseline ≧50%: Subjects without Response (number)” value (PP, Double Blind Week 16) was 33. The “QIDS reduction from baseline ≧50%: Subjects without Response (percentage)” value (PP, Double Blind Week 16) was 29%, the “QIDS score ≦5: Subjects with Remission (number)” value (PP, Double Blind Week 16) was 55 and the “QIDS score ≦5: Subjects with Remission (percentage)” value (PP, Double Blind Week 16) was 49%. The “QIDS score ≦5: Subjects without Remission (number)” value (PP, Double Blind Week 16) was 58, the “QIDS score ≦5: Subjects without Remission (percentage)” value (PP, Double Blind Week 16) was 51% and the “QIDS-SR Adjusted Mean change” value [5] was −8.60. For the same compound, the “QIDS-SR Mean Difference between TC-5214 and Placebo” value [5] was 3.90, the “QIDS reduction from baseline ≧50%: Subjects with Response (number)” value [6] was 84 and the “QIDS reduction from baseline ≧50%: Subjects with Response (percentage)” value [6] was 74%. For the same compound, the “QIDS reduction from baseline ≧50%: Subjects without Response (number)” value [6] was 29, the “QIDS reduction from baseline ≧50%: Subjects without Response (percentage)” value [6] was 26% and the “QIDS score ≦5: Subjects with Remission (number)” value [6] was 69. For the same compound, the “QIDS score ≦5: Subjects with Remission (percentage)” value [6] was 61%, the “QIDS score ≦5: Subjects without Remission (number)” value [6] was 44 and the “QIDS score ≦5: Subjects without Remission (percentage)” value [6] was 39%. For the same compound, the “QIDS-SR Adjusted Mean change” value [7] was −0.65 and the “QIDS-SR Mean Difference between TC-5214 and Placebo” value [7] was 0.84.
